Measured values: the supplement of paper PMC10307832

What was measured:
Assay in all cases: relative viability (nuclei count vs DMSO), 5 days (fraction); higher = more cells survive
[1] = compound: C1=CC=C2C(=C1)N=C(S2)C(C#N)C3=NC(=NC=C3)NCCC4=CN=CC=C4 + Cc1nc(Nc2ncc(C(=O)Nc3c(C)cccc3Cl)s2)cc(N2CCN(CCO)CC2)n1 [Dasatinib] (partner 0.075 µM)
How it was run: (§1)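 After 5 days of treatment, lung cancer cells in 1536-well plates were fixed and stained in a single step (final 0.05% Triton X-100, 1% formaldehyde, 1 ug/ml Hoechst) and their nuclei counted on 4× images. Treatment had been applied by pin tool the day after seeding as one drug alone or as a fixed anchor-drug dose with five library-drug doses (not always all listed) in √10 steps. Relative viability is the nuclei count of treated wells divided by that of vehicle wells, and values are medians of duplicate plates.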

[2] = compound: C1=CC=C2C(=C1)N=C(S2)C(C#N)C3=NC(=NC=C3)NCCC4=CN=CC=C4 + CC1(C)CCC(c2ccc(Cl)cc2)=C(CN2CCN(c3ccc(C(=O)NS(=O)(=O)c4ccc(N[C@H](CCN5CCOCC5)CSc5ccccc5)c(S(=O)(=O)C(F)(F)F)c4)cc3)CC2)C1 [Navitoclax] (partner 0.5 µM)
How it was run: as §1

CUDC-101 + Palbociclib = compound: C#Cc1cccc(Nc2ncnc3cc(OC)c(OCCCCCCC(=O)NO)cc23)c1 [CUDC-101] + CC(=O)c1c(C)c2cnc(Nc3ccc(N4CCNCC4)cn3)nc2n(C2CCCC2)c1=O [Palbociclib] (partner 0.5 µM)
How it was run: as §1

Vandetanib + Trametinib = compound: COc1cc2/c(=N/c3ccc(Br)cc3F)nc[nH]c2cc1OCC1CCN(C)CC1 [Vandetanib] + CC(=O)Nc1cccc(-n2c(=O)n(C3CC3)c(=O)c3c(Nc4ccc(I)cc4F)n(C)c(=O)c(C)c32)c1 [Trametinib] (partner 0.02 µM)
How it was run: as §1

Q: With UMC-11 as the cell line, how does the relative viability ([1]; first compound 0.005 µM) read?
A: 0.257

Q: And the relative viability ([1]; first compound 0.01581 µM)?
A: 0.481

Q: What about the relative viability ([1]; first compound 0.05 µM) of the same cell line?
A: 0.447

Q: What about the relative viability ([1]; first compound 0.1581 µM) of the same cell line?
A: 0.583

Q: What about the relative viability ([1]; first compound 0.5 µM) of the same cell line?
A: 0.379

Q: And the relative viability ([2]; first compound 0.005 µM)?
A: 0.28

Q: And the relative viability ([2]; first compound 0.01581 µM)?
A: 0.304

Q: And the relative viability ([2]; first compound 0.05 µM)?
A: 0.294

Q: What about the relative viability ([2]; first compound 0.1581 µM) of the same cell line?
A: 0.307

Q: And the relative viability ([2]; first compound 0.5 µM)?
A: 0.306

Q: And the relative viability (CUDC-101 + Palbociclib; first compound 0.01 µM)?
A: 0.346

Q: What about the relative viability (CUDC-101 + Palbociclib; first compound 0.03162 µM) of the same cell line?
A: 0.375

Q: What about the relative viability (CUDC-101 + Palbociclib; first compound 0.1 µM) of the same cell line?
A: 0.323

Q: And the relative viability (CUDC-101 + Palbociclib; first compound 0.3162 µM)?
A: 0.277

Q: What about the relative viability (CUDC-101 + Palbociclib; first compound 1 µM) of the same cell line?
A: 0.228

Q: And the relative viability (Vandetanib + Trametinib; first compound 0.02 µM)?
A: 0.82

Q: And the relative viability (Vandetanib + Trametinib; first compound 0.06325 µM)?
A: 0.674

Q: And the relative viability (Vandetanib + Trametinib; first compound 0.2 µM)?
A: 0.627

Q: What about the relative viability (Vandetanib + Trametinib; first compound 0.6325 µM) of the same cell line?
A: 0.632

Q: And the relative viability (Vandetanib + Trametinib; first compound 2 µM)?
A: 0.583
